Source: article PMC11532403 (Signal Transduction and Targeted Therapy, 2024)
Where two headings read alike, the source gives them in different places.

How the values were obtained:
[1] = system: Baf3-CCDC6-RET M918T cells; experiment: Proliferation assay (CellTiter-Glo); format: cell-based, murine; conditions: Mus musculus, read-out: Cellular Viability IC50
Method: (§1) The cell lines HEK293T, Baf3, TT cell and NIH-3T3 were obtained from the Cell Resource Center, Peking Union Medical College (PCRC). HEK293T and NIH-3T3 were maintained in DMEM high glucose medium (#C3113-0500, Vivacell) supplemented with 10 % FBS (#10500064, Gibco) and 1 % Penicillin-Streptomycin (#15140122, Gibco). The murine Pro‐B cell line Baf3 was cultured in RPMI 1640 medium (#C3010, Vivacell) supplemented with 10 % FBS, 1 % Penicillin-Streptomycin and 1 ng/mL recombinant murine interleukin-3 (#213-13, PeproTech). All stably transformed BaF3 cells were cultured in RPMI 1640 without IL‐3. The TT MTC cell was grown in Ham's F-12K medium (#21127022, Gibco) supplemented with 10 % FBS and 1 % Penicillin-Streptomycin. Cells were cultured at 37 °C under 5 % CO2 and high humidity conditions.
(§2) KIF5B-RET, CCDC6-RET and mutations were cloned into pCDHL vector and were verified by sequencing. Reah RET expression vectors were separately co‐transfected with psPAX2 and pMD2.G packaging plasmids into 60-70% confluent HEK 293T cells maintained in 2 mL of culture medium in six‐well plates using Polyethyleneimine (PEI) transfection grade. Virus containing media was harvested after 48 h and filtered with 0.45 μm membrane and stored at -80 °C prior to infection. For infection of Ba/F3 cells, 1 mL of viral supernatant and 8 μg/mL polybrene were added to 5 million cells per well in six‐well plates. Infected cells were selected with the addition of 1 μg/mL puromycin for 2 weeks in RPMI-1640/ 10% FBS/ 1 ng/mL IL-3 medium. Subsquently, puromycin-resistant cells were cultured in IL-3-free medium for 1 week and RET fusion proteins were confirmed by immunoblot analysis.
(§3) Cell viability was assessed by luminescence using CellTiter-Glo 2.0 assay (Promega). IC50 curve fitting was performed using GraphPad Prism 9.0.

[2] = system: Baf3-CCDC6-RET V804M cells; experiment: Proliferation assay (CellTiter-Glo); format: cell-based, murine; conditions: Mus musculus, read-out: Cellular Viability IC50
Method: as §1, §2, §3

[3] = system: Baf3-CCDC6-RET WT cells; experiment: Proliferation assay (CellTiter-Glo); format: cell-based, murine; conditions: Mus musculus, read-out: Cellular Viability IC50
Method: as §1, §2, §3

[4] = system: Baf3-KIF5B-RET M918T cells; experiment: Proliferation assay (CellTiter-Glo); format: cell-based, murine; conditions: Mus musculus, read-out: Cellular Viability IC50
Method: as §1, §2, §3

[5] = system: central nervous system; experiment: Central nervous system safety pharmacology; format: in vivo, SD rats; conditions: single oral, males 15-40, females 30-80 mg/kg
Method: All rats were evaluated for cage-side observation, detailed clinical observation, body weight and neurofunctional behavioural indices including in-cage observation, restraint observation, field observation, stimulus reflex observation and body temperature.

[6] = Excretion in rats (feces, urine, bile); format: in vivo
Method: The total fecal and urinary excretion of prodrug and metabolite was 62.8% of the administered dose. The amount of prodrug and metabolite in bile from 0 to 48 h in bile duct-intubated rats was 5.22% of the administered dose, of which 0.656% was prodrug and 4.57% was metabolite.

[7] = target: T1, CYP2C8 (Homo sapiens, UniProt P10632); experiment: CYP inhibition in human liver microsomes; format: in vitro ADME; conditions: 0.5-25 μM
T1 construct: substrates of different CYP450 enzymes in mixed human liver microsomes; from tissue; host or cells: mixed human liver microsomes

[8] = target: T2, CYP3A4 (Homo sapiens, UniProt P08684); experiment: CYP inhibition in human liver microsomes; format: in vitro ADME; conditions: mixed human liver microsomes, 0.5-25 μM
T2 construct: substrates of different CYP450 enzymes in mixed human liver microsomes; from tissue; host or cells: mixed human liver microsomes

[9] = target: T3, CYP2C19 (Homo sapiens, UniProt P33261); experiment: CYP inhibition in human liver microsomes; format: in vitro ADME; conditions: 0.5-25 μM
T3 construct: substrates of different CYP450 enzymes in mixed human liver microsomes; from tissue; host or cells: mixed human liver microsomes

[10] = target: T4, CYP2D6 (Homo sapiens, UniProt P10635); experiment: CYP inhibition in human liver microsomes; format: in vitro ADME; conditions: 0.5-25 μM
T4 construct: substrates of different CYP450 enzymes in mixed human liver microsomes; from tissue; host or cells: mixed human liver microsomes

[11] = Caco-2 permeability; format: in vitro ADME, human
[12] = Acute toxicity, single oral gavage; format: in vivo; conditions: SD, rat, in vivo, oral, read-out: MTD, single dose
[13] = system: SD rats; experiment: Acute toxicity, single oral gavage; format: in vivo; conditions: acute toxicity study in SD rats
[14] = Acute toxicity, single oral gavage; conditions: both sexes, beagle, dog, in vivo, read-out: MTD, single dose
[15] = system: Salmonella typhimurium and Escherichia coli; format: cell-based

T4 sequence (P10635 whole entry): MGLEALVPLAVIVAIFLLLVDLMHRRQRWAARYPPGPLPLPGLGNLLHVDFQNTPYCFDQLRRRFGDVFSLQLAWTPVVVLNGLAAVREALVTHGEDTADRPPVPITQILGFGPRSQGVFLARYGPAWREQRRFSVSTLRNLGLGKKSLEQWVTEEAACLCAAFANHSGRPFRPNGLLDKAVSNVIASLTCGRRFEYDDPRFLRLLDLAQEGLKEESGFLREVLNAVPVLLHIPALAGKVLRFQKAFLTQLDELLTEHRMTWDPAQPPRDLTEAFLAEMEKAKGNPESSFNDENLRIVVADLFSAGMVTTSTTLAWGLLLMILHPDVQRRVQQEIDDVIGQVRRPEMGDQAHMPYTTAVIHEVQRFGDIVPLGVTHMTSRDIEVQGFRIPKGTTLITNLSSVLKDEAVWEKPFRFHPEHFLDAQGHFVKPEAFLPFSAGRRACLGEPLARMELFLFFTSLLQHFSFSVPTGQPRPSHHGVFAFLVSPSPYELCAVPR
T3 sequence (P33261 whole entry): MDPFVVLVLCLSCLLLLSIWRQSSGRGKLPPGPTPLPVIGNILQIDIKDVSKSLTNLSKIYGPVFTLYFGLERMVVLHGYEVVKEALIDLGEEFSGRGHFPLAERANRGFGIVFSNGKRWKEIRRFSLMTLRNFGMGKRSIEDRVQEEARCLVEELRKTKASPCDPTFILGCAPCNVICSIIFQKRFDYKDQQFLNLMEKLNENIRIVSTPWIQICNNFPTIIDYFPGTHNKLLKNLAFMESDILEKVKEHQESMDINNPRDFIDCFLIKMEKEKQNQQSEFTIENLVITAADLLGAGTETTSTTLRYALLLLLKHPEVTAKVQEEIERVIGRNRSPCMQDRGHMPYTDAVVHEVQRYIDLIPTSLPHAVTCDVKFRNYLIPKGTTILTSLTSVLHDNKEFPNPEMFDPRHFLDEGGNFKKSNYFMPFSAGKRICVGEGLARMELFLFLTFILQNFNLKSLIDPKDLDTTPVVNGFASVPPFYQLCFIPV
T2 sequence (P08684 whole entry): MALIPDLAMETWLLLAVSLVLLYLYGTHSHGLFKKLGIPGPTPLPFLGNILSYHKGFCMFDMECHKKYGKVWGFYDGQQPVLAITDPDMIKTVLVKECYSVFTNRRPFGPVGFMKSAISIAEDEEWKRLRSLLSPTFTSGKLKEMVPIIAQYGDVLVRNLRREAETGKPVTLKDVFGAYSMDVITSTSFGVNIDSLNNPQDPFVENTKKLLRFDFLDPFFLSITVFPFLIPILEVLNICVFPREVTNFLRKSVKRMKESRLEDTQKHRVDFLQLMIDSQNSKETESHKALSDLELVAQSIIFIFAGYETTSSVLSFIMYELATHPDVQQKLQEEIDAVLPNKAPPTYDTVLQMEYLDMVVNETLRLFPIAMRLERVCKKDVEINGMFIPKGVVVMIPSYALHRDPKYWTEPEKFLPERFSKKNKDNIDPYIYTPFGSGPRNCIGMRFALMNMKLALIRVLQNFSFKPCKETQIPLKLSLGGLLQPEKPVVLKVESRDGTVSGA
T1 sequence (P10632 whole entry): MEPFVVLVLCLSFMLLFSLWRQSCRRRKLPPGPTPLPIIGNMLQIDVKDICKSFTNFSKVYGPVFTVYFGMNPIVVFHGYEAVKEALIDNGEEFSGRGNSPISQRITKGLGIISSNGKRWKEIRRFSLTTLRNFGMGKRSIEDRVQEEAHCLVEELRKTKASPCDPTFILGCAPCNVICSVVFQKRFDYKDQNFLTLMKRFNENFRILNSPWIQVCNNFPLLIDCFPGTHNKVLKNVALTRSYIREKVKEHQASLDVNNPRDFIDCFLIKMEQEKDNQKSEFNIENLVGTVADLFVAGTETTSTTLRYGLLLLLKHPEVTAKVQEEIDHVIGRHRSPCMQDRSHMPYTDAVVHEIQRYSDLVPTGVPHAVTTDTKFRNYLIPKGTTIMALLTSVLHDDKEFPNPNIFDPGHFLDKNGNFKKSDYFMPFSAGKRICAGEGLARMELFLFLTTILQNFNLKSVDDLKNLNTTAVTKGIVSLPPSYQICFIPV

## COc1ccc(CN2C3CC2CN(c2ccc(-c4cc(N5CC(C)(O)C5)cn5ncc(C#N)c45)cn2)C3)cn1 [SY-5007, 6-(3-hydroxy-3-methylazetidin-1-yl)-4-(6-(6-((6-methoxypyridin-3-yl)methyl)-3,6-diazabicyclo[3.1.1]heptan-3-yl)pyridin-3-yl)pyrazolo[1,5-a]pyridine-3-carbonitrile]
[1]
  IC50: 5.44 nM
[2]
  IC50: 27.1 nM
[3]
  IC50: 10.2 nM
[4]
  IC50: 13.6 nM
[5]
  CNS effects: did not affect any of the assessed neurofunctional-behavioural parameters
[6]; 20 mg/kg gavage
  Fecal excretion, prodrug (parent): 55.4%
  Urinary excretion, prodrug (parent): 0.801%
[6]; bile duct-intubated rats
  Bile excretion, prodrug (parent): 0.656%
[7]
  IC50: 9750 nM
[8]
  IC50: 18000 nM
[9]
  IC50: > 25000 nM
[10]
  IC50: > 25000 nM
[11]
  Permeability class: moderately permeable
[12]; female, females
  MTD: 500 mg/kg
[12]; male, males
  MTD: 250 mg/kg
[13]
  Kidney: urea: elevated urea
[14]
  MTD: 200 mg/kg
[15]
  Ames test result: negative
